Experimental data published in US10745389B2, “HDAC6 selective inhibitors, preparation method therefor, and application thereof” (CSTONE PHARMACEUTICALS (SUZHOU) CO., LTD., priority 2017, dated 2020).

Key:
HDAC 6 = target: T1, HDAC 6 (Homo sapiens, UniProt Q9UBN7); assay: In vitro HDAC enzyme inhibition, fluorescent deacetylation assay (HDAC6); type: biochemical
T1 sequence (Q9UBN7 1-1215): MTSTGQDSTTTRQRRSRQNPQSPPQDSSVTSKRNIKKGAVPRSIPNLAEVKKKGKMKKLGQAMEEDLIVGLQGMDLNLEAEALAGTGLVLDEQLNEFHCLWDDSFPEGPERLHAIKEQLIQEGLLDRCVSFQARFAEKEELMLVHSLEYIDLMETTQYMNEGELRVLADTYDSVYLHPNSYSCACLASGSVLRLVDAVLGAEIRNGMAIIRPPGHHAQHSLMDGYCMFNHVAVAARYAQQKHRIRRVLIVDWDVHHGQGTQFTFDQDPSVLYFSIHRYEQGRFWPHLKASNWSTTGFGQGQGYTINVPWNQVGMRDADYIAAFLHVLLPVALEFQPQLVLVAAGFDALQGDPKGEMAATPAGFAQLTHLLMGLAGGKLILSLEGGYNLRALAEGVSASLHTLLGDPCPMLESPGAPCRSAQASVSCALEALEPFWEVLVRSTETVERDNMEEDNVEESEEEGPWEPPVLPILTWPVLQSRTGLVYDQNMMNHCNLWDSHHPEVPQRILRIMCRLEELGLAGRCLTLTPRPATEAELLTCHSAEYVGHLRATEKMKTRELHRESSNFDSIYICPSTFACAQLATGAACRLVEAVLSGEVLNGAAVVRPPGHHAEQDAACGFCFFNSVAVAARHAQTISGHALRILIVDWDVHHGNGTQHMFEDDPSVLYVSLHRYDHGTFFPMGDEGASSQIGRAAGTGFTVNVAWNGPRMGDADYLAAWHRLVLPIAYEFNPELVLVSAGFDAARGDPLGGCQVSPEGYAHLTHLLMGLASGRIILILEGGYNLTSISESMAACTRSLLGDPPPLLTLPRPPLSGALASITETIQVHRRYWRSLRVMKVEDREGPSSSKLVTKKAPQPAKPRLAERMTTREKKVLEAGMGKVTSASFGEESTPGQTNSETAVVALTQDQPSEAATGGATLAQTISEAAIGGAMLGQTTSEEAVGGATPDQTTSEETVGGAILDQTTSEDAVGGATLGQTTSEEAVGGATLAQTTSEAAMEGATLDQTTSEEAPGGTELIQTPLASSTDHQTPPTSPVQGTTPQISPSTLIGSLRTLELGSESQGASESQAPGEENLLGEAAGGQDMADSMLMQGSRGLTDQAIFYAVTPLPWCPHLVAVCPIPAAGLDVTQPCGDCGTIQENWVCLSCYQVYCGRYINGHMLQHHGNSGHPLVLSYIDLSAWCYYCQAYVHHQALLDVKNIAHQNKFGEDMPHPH
Experimental: (§1) The degree of deacetylation of the acetylated substrate was determined by detecting the changes in the intensity of the fluorescent signal in the 384-well microplate using EnVision® microplate reader, the half inhibitory comcentration IC50 value of the compound inhibitor was used as a reference to evaluate the inhibitory effect of the compound on the histone deacetylase (HDAC). The compound was diluted by DMSO to 2 mM, and then added to 384 compound plate, then the solution was diluted 3 times, 10 gradients and double duplicate wells using a Bravo automated liquid workstation; then 0.15 μL of the compound was transferred from 384 compound plate to 384 assay plate by Echo liquid handler. 1.2 configuration of the assay buffer: the configuration contains 20 mM Hepes, 137 mM NaCl, 2.7 mM KCl, 1 mM MgCl2, 0.05% BSA, 0.5 mM TCEP of 1× assay buffer, each of which is represented by final concentration thereof. The rapidly dissolving histone deacetylase was added to the 1× assay buffer and mixed well. The 1.5× enzyme mixture was added to a 20 μL to 384-well assay plate, mixed by centrifugation, placed in a 23° C. incubator, and the enzyme was incubated with the compound for 20 minutes. The 3× substrate solution was configured by 1× assay buffer, and then mixed well. 10 μL was added to a 384-well assay plate, mixed by centrifugation, and placed in a 23° C. incubator for 90 minutes for reaction. The terminating mixture of trypsin and the positive compound SAHA (Vorinostat, vorinostat) was configured with 1× assay buffer and mixed well. The reaction was terminated by adding 30 μL to a 384-well assay plate, then centrifuged, and placed in a 23° C. incubator for 60 minutes. After termination of the reaction for 60 minutes, the 384-well assay plate was placed on an Envision micro-plate reader and the fluorescence value was read. 1.7 Data analysation: the data was analyzed by using XLfit5 software to calculate the IC50 value of the compound.

HDAC 1 = HDAC 1 (Homo sapiens, UniProt Q13547); assay: In vitro HDAC enzyme inhibition, fluorescent deacetylation assay (HDAC1); type: biochemical
Experimental: as §1

[1] = Pharmacokinetic evaluation in male beagle dogs; type: in vivo; conditions: plasma, male beagle dog
Experimental: Purpose of the experiment: test the compound's pharmacokinetics in male beagle dogs
Experimental materials: Beagle (male, 6-15 kg, 6 months-4 age, Marshall Bioresources, Beijing, China)
The Beagle's pharmacokinetic characteristics after oral administration of the compound were tested by a standard scheme. In the experiment, the candidate compound was formulated into a uniform suspension and administered to a beagle dog for single oral administration. Oral menstruum was formed by a certain proportion of polyethylene glycol-polyoxyethylene castor oil aqueous solution. Blood samples within 24 hours was collected, then centrifuged at 3000 g for 10 minutes, the supernatant was separated to obtain plasma samples, 30 μL of plasma samples was added into 300 μL of internal standard acetonitrile solution to precipitate protein, 30 μL of supernatant was obtained after vortex and centrifugation, and then equal volume of water was added, followed by vortex and centrifugation for another time to collect the supernatant, and the plasma concentration was quantitatively analyzed by LC-MS/MS analysis, and the pharmacokinetic parameters such as peak concentration, peak-reached time, half-life, and area under the administrating curve were calculated.

HDAC 1, sequence (Q13547 whole entry, species assumed): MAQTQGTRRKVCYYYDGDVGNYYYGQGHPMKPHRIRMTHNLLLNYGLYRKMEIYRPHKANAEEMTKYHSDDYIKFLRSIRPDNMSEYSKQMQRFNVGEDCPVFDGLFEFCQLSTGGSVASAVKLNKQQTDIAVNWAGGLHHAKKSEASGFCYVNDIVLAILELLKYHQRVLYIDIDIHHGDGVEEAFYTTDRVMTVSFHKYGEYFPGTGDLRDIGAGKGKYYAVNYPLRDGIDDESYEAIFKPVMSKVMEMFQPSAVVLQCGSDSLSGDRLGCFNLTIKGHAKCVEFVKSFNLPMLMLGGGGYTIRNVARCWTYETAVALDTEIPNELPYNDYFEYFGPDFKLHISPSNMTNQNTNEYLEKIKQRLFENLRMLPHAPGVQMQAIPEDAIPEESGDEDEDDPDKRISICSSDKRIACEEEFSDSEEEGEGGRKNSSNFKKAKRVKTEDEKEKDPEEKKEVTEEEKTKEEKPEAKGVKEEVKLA

Row | Compound | IC50 (HDAC 6) [nM] | IC50 (HDAC 1) [nM] | half-life ([1]; oral, read-out: Half-life T1/2 (converted)) [h] | AUC ([1]; single oral administration, read-out: Integrated concentration AUC) [µM·h] | bioavailability ([1]; single oral administration, read-out: bioavailability F (%)) [%] | clearance ([1]; read-out: Clearance rate) [mL/min/kg]
1 | O=C(NO)c1ccc(Cn2ccc(C3(c4ccc(F)cc4)CCCO3)cc2=O)cc1 (single isomer, unassigned) [Embodiment4] | ≤ 10 | 50 to 200 |  |  |  | 
2 | O=C(NO)c1ccc(Cn2ccc(C3(c4ccc(F)cc4)CCCO3)cc2=O)cc1 (single isomer, unassigned) [Embodiment5] | ≤ 10 | 50 to 200 |  |  |  | 
3 | O=C(NO)c1ccc(CNC(=O)c2ccc(C3(c4ccc(F)cc4)CCCO3)cc2)cc1 (single isomer, unassigned) [Embodiment21] | ≤ 10 | 50 to 200 |  |  |  | 
4 | O=C(NO)c1ccc(CNC(=O)c2ccc(C3(c4ccc(F)cc4)CCCO3)cc2)cc1 (single isomer, unassigned) [Embodiment22] | ≤ 10 | 50 to 200 |  |  |  | 
5 | CC(C)C1(c2ccn(Cc3ccc(C(=O)NO)cc3)c(=O)c2)CCCO1 (centres unmarked) [Embodiment1] | ≤ 10 | > 200 |  |  |  | 
6 | CC1(c2ccn(Cc3ccc(C(=O)NO)cc3)c(=O)c2)CCCO1 (centres unmarked) [Embodiment2] | ≤ 10 | > 200 |  |  |  | 
7 | O=C(NO)c1ccc(Cn2ccc(C3(c4ccc(F)cc4)CCCO3)cc2=O)cc1 (centres unmarked) [Embodiment3] | ≤ 10 | 50 to 200 |  |  |  | 
8 | O=C(NO)c1ccc(Cn2ccc(C3(c4ccc(F)cc4F)CCCO3)cc2=O)cc1 (centres unmarked) [Embodiment6] | ≤ 10 | 50 to 200 |  |  |  | 
9 | O=C(NO)c1ccc(Cn2ccc(C3(c4ccc(F)cc4)CCCO3)cc2=O)nc1 (centres unmarked) [Embodiment7] | ≤ 10 | > 200 |  |  |  | 
10 | O=C(NO)c1cnc(Cn2ccc(C3(c4ccc(F)cc4)CCCO3)cc2=O)nc1 (centres unmarked) [Embodiment8] | ≤ 10 | > 200 |  |  |  | 
11 | O=C(NO)c1ccc(Cn2ccc(C3(c4ccc(F)cc4)CCCO3)cc2=O)cn1 (centres unmarked) [Embodiment9] | 50 to 200 | > 200 |  |  |  | 
12 | O=C(NO)c1ccc(Cn2ccc(C3(c4c(F)cc(F)cc4F)CCCO3)cc2=O)cc1 (centres unmarked) [Embodiment10] | 10 to 50 | > 200 |  |  |  | 
13 | O=C(NO)c1ccc(Cn2cc(F)c(C3(c4ccc(F)cc4)CCCO3)cc2=O)cc1 (centres unmarked) [Embodiment11] | ≤ 10 | 50 to 200 |  |  |  | 
14 | O=C(NO)c1ccc(Cn2ccc(C3(c4ccc(F)cc4)CCO3)cc2=O)cc1 (centres unmarked) [Embodiment12] | ≤ 10 | 50 to 200 |  |  |  | 
15 | O=C(NO)c1ccc(Cn2ccc(C3(c4ccc(F)cc4)CCO3)c(F)c2=O)cc1 (centres unmarked) [Embodiment13] | ≤ 10 | 50 to 200 |  |  |  | 
16 | O=C(NO)c1ccc(Cn2ccc(C3(c4ccc(F)cc4)CCCO3)c(F)c2=O)cc1 (centres unmarked) [Embodiment14] | ≤ 10 | 50 to 200 |  |  |  | 
17 | O=C(NO)c1ccc(Cn2ccc(C3(c4ccc(F)cc4)CCCCO3)cc2=O)cc1 (centres unmarked) [Embodiment15] | ≤ 10 | 50 to 200 |  |  |  | 
18 | O=C(NO)c1ccc(Cn2ccc(C3(c4ccc(F)cc4)OCCO3)cc2=O)cc1 [Embodiment16] | ≤ 10 | 50 to 200 |  |  |  | 
19 | O=C(NO)c1ccc(Cn2ccc(C3(c4ccc(F)cc4)COCCO3)cc2=O)cc1 (centres unmarked) [Embodiment17] | ≤ 10 | 50 to 200 |  |  |  | 
20 | O=C(NO)c1ccc(Cn2ccc(C3(c4ccccn4)CCCO3)cc2=O)cc1 (centres unmarked) [Embodiment18] | ≤ 10 | 50 to 200 |  |  |  | 
21 | O=C(NO)c1ccc(Cn2ccc(C3(c4ccncc4)CCCO3)cc2=O)cc1 (centres unmarked) [Embodiment19] | ≤ 10 | 50 to 200 |  |  |  | 
22 | O=C(NO)c1ccc(CNC(=O)c2ccc(C3(c4ccc(F)cc4)CCCO3)cc2)cc1 (centres unmarked) [Embodiment20] | ≤ 10 | 50 to 200 |  |  |  | 
23 | O=C(NO)c1ccc(CNc2ccc(C3(c4ccc(F)cc4)CCCO3)cc2)cc1 (centres unmarked) [Embodiment23] | 10 to 50 | > 200 |  |  |  | 
24 | O=C(NO)c1ccc(Nc2ccc(C3(c4ccc(F)cc4)CCCO3)cc2)cc1 (centres unmarked) [Embodiment24] | 10 to 50 | > 200 |  |  |  | 
25 | O=C(NO)c1ccc(NC(=O)c2ccc(C3(c4ccc(F)cc4)CCCO3)cc2)cc1 (centres unmarked) [Embodiment25] | 10 to 50 | > 200 |  |  |  | 
26 | O=C(NO)c1ccc(CNC(=O)c2ccc(C3(c4ccc(F)cc4)CCCO3)cn2)cc1 (centres unmarked) [Embodiment26] | ≤ 10 | 50 to 200 | 2.14 | 13.3 | 53.1 | 16
